The text below walks through data of ChEMBL document CHEMBL5634194, “Novel Myeloperoxidase Inhibitors for Treating Multiple Diseases” (ACS Med Chem Lett, 2024).

The term IC50 denotes the concentration at which inhibition is half-maximal.

The experiment has as its target T1, Myeloperoxidase (Homo sapiens, UniProt P05164).
T1 sequence (P05164 whole entry): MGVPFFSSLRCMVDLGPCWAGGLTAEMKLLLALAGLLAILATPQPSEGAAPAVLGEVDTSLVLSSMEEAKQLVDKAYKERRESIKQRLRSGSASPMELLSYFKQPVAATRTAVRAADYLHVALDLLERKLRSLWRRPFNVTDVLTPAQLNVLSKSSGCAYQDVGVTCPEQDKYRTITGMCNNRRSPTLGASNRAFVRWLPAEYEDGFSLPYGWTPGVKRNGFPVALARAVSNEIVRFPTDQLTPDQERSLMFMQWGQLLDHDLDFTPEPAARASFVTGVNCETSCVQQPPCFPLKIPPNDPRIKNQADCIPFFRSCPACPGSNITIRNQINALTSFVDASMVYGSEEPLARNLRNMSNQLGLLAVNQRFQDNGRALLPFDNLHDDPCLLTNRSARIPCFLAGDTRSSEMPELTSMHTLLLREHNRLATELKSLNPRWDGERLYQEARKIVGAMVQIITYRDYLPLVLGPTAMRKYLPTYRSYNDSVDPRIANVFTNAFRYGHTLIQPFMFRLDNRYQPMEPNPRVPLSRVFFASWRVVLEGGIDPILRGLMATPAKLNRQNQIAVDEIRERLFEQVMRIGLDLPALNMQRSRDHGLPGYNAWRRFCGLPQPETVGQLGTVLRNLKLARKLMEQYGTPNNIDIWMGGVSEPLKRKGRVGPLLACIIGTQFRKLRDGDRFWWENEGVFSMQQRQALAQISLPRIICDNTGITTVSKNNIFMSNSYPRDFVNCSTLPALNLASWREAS
The experiment in a line: Inhibition of human MPO using H2O2 as substrate measured after 15 mins by chemiluminescence based assay.
With `O=c1[nH]c(=S)n(Cc2ccccc2[C@@H]2C[C@H](C(F)F)CCN2)c2cc[nH]c12`, the midpoint of inhibition, the IC50, lay at 1 nM. To `O=c1[nH]c(=S)n(Cc2ccccc2[C@H]2C[C@H](C(F)(F)F)CCN2)c2nc[nH]c12` belongs 3 nM; to `O=c1[nH]c(=S)n(Cc2ccccc2[C@@H]2CC(F)(F)CCN2)c2cc[nH]c12`, 3 nM.

On to `O=c1[nH]c(=S)n(Cc2ccccc2[C@@H]2CCCCN2)c2cc[nH]c12`, for which the IC50 turned out to be 2 nM.

With `O=c1[nH]c(=S)n(Cc2ccccc2[C@@H]2C[C@H](C(F)(F)F)CCN2)c2nc[nH]c12`, the IC50 amounted to 2 nM.

Turning to `O=c1[nH]c(=S)n(Cc2ccccc2[C@H]2C[C@@H](C(F)(F)F)CCN2)c2cc[nH]c12`, the IC50 turned out to be 2 nM.
